Reference: patent US20030073737A1, “Tolerance induction” (priority 2001, published 2003)

Experiments:
[1] = tested on: donor heart graft; assay: Rat heterotopic heart transplantation, graft survival; assay type: in vivo; conditions: Lewis/BN rats; i.v. or s.c., daily dose up to 1 mg/kg for 1-12 weeks, e.g. 4 weeks; daily palpation of beating donor heart
Excerpt: 1. Rat Heterotopic Heart Transplantation
The strain combination used: Male Lewis (RT^1 haplotype) and BN (RT^1 haplotype). The animals are anaesthetised using inhalational isofluorane. […] The aorta is ligated and divided distal to the first branch and the brachiocephalic trunk is divided at the first bifurcation. The left pulmonary artery is ligated and divided and the right side divided but left open. All other vessels are dissected free, ligated and divided and the donor heart is removed into iced saline.
The recipient is prepared by dissection and cross-clamping of the infra-renal abdominal aorta and vena cava. The graft is implanted with end-to-side anastomoses, using 10/0 monofilament suture, between the donor brachiocephalic trunk and the recipient aorta and the donor right pulmonary artery to the recipient vena cava. The clamps are removed, the graft tethered retroabdominally, the abdominal contents washed with warm saline and the animal is closed and allowed to recover under a heating lamp. Graft survival is monitored by daily palpation of the beating donor heart through the abdominal wall. Rejection is considered to be complete when heart beat stops.

[2] = tested on: mixed lymphocyte reaction; conditions: as described in WO 99/50388; cited from earlier work

For Tautomycetin, the graft survival [1] is given as “Increases of graft survival are obtained beyond treatment time” and the “inhibition of the mixed lymphocyte reaction” value [2] is given as “inhibition of the mixed lymphocyte reaction”.
